Results published in paper PMC7311426, “An amphipathic peptide with antibiotic activity against multidrug-resistant Gram-negative bacteria” (Nature Communications, 2020).
≈ marks a conversion by molar mass, not a printed value. Like-named read-outs stand apart in the source and are kept apart here. Residues, ends and D or L forms follow the SMILES beside them.

Tests used:
P. aeruginosa = assay: microbe, parasite or virus in culture; conditions: for MIC: Pseudomonas aeruginosa, mode of 6 replicates
Method in brief: (§1)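 Broth microdilution in MHB, 2-fold 12-point series from 128 or 64 down to 0.06 or 0.03 μg mL^−1, 5 × 10^5 CFU mL^−1. Extra runs in CAMHB per CLSI and in MHB with 1% agarose; n ≥ 6.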

E. coli [1] = assay: microbe, parasite or virus in culture; conditions: Escherichia coli
Method in brief: as §1

A. baumannii = assay: microbe, parasite or virus in culture; conditions: for MIC: Acinetobacter baumannii, mode of 6 replicates
Method in brief: as §1

S. enterica Typhi = assay: microbe, parasite or virus in culture; conditions: for MIC: Salmonella enterica, ATCC14028 / TYPHI, read-out: BMD MIC
Method in brief: as §1

K. pneumoniae = assay: microbe, parasite or virus in culture; conditions: for MIC: Klebsiella pneumoniae, mode of 6 replicates
Method in brief: as §1

[2] = system: E. coli clinical isolates; assay: microbe, parasite or virus in culture
Procedure: (§2) The in vitro activity of AA139 and comparator antimicrobials was determined in two panels of clinical isolates of E. coli, K. pneumoniae, P. aeruginosa, and A. baumannii (Supplementary Table 3), and MIC90 presented. The US panel consisted of 331 clinical isolates from 2010 to 2012. It was tested by BMD in accordance with the CLSI guidelines (M07-A9, 2012)[39]. […] AA139 was diluted in 0.01% acetic acid/0.1% bovine serum albumin. Sterile polypropylene culture cluster round-bottom 96-well plates (Costar # 3879) were used for testing. The worldwide panel consisted of 445 clinical isolates from 2011 to 2013, geographically divided into Asia, Europe, North America, and Rest of World (Middle East, Latin America, Africa, and South Pacific) with each region representing ~25% of the isolates. It was tested by broth microdilution in accordance with the CLSI guidelines (M07-A9, 2012)[39]. […] The test media was CAMHB (Becton Dickinson). AA139 and polymyxin B were tested in media supplemented with 0.002% Tween 80 (Calbiochem). MIC90 values were calculated for all or subsets of the isolates. MIC correlation between AA139 and colistin was analyzed with data from the US panel.

[3] = system: P. aeruginosa clinical isolates; assay: microbe, parasite or virus in culture
Procedure: as §2

[4] = system: A. baumannii clinical isolates; assay: microbe, parasite or virus in culture
Procedure: as §2

[5] = system: K. pneumoniae clinical isolates; assay: microbe, parasite or virus in culture
Procedure: as §2

E. coli [6] = system: E. coli; design: method as in Hasman H, et al. Euro. Surveill. (2015) 20:49; conditions: E. coli ESBL20150072, mcr-1 pos; ESBL; CAMHB; comparator antibiotics; ref Hasman H, et al. Euro. Surveill. (2015) 20:49; cited from earlier work
E. coli ATCC 25922 = assay: microbe, parasite or virus in culture; assay type: cell-based, Escherichia coli; conditions: ATCC 25922
Method in brief: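 Broth microdilution MIC in Mueller Hinton broth, 12-point 2-fold series from 128 or 64 down to 0.06 or 0.03 μg mL^−1, 5 × 10^5 CFU mL^−1 inoculum. Read visually after 18-20 h at 37 °C without shaking; n ≥ 6. Additional tests in CAMHB, and in MHB with 1% agarose.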

[7] = system: HepG2 liver hepatocellular carcinoma cells; assay: in vitro
[8] = system: HK-2 human kidney proximal tubule cells; assay: in vitro
[9] = system: HEK-293 human embryonic kidney cells; assay: in vitro
in vitro = conditions: human
[10] = system: human erythrocytes (HRBC); assay type: cell-based
L. monocytogenes = assay: microbe, parasite or virus in culture
Method in brief: as §1

C. albicans = assay: microbe, parasite or virus in culture
C. neoformans = assay: microbe, parasite or virus in culture
B. subtilis = assay: microbe, parasite or virus in culture; conditions: for MIC: Bacillus subtilis
Method in brief: as §1

S. aureus = assay: microbe, parasite or virus in culture; conditions: Staphylococcus aureus, mode of 6 replicates
Method in brief: as §1

[11] = Worldwide isolates 2011-2013, E. coli n = 112
[12] = Worldwide isolates 2011-2013, P. aeruginosa n = 111
[13] = Worldwide isolates 2011-2013, A. baumannii n = 108
[14] = Worldwide isolates 2011-2013, K. pneumoniae n = 114

Work on CC(C)(O/N=C(\C(=O)N[C@@H]1C(=O)N2C(C(=O)[O-])=C(C[n+]3ccccc3)CS[C@H]12)c1csc(N)n1)C(=O)O [Ceftazidime, ceftazidime, reference compound] yielded an MIC (P. aeruginosa; ATCC27853, read-out: BMD MIC, P. aeruginosa ATCC 27853 control strain, CAMHB) of 8 µg/mL (≈ 14.6 µM), an MIC (P. aeruginosa; read-out: BMD MIC, P. aeruginosa FADDI-070, MDR, PmxR, MHB/CAMHB) greater than 64 µg/mL and an MIC (E. coli [1]; ATCC25922, read-out: BMD MIC, E. coli ATCC 25922 FDA control strain, CAMHB, mode of 6 replicates) of 1 µg/mL (≈ 1.83 µM). The MIC (E. coli [1]; ATCC700926 / MG1655, read-out: BMD MIC) was no more than 0.5 µg/mL, the MIC (E. coli [1]; ATCC700928, read-out: BMD MIC, E. coli ATCC 700928 CFT073 UPEC, CAMHB, mode of 6 replicates) was no more than 0.25 µg/mL and the MIC (E. coli [1]; read-out: BMD MIC) was 16 µg/mL (≈ 29.3 µM). For the same compound, the MIC (A. baumannii; ATCC19636, read-out: BMD MIC, A. baumannii ATCC 19636 type strain, CAMHB) was 16 µg/mL (≈ 29.3 µM), the MIC (A. baumannii; read-out: BMD MIC, A. baumannii Greece CI, XDR, PmxR, MHB) was greater than 64 µg/mL and the MIC (S. enterica Typhi) was no more than 0.5 µg/mL. For the same compound, the MIC (K. pneumoniae; ATCC13883, read-out: BMD MIC, K. pneumoniae ATCC 13883 type strain (polymyxin/colistin heteroresistant), MHB) was 1 µg/mL (≈ 1.83 µM), the MIC (K. pneumoniae; ATCC700603, read-out: BMD MIC, K. pneumoniae ATCC 700603 (K6), MDR, OXA-2/SHV-18, CAMHB) was greater than 64 µg/mL and the MIC (K. pneumoniae; BAA2146, read-out: BMD MIC, K. pneumoniae BAA-2146, MDR, ESBL, NDM-1 pos, MHB) was greater than 64 µg/mL. For the same compound, the MIC (K. pneumoniae; read-out: BMD MIC, K. pneumoniae Greece CI 8_GR_13, XDR, KPC-2, PmxR, MHB) was greater than 64 µg/mL, the MIC90 ([2]; Escherichia coli) was 32 µg/mL (≈ 58.5 µM) and the MIC90 ([2]; Escherichia coli, US isolates 2010–2012, E. coli MDR, n = 31) was greater than 32 µg/mL. For the same compound, the MIC90 ([2]; Escherichia coli, US isolates 2010–2012, E. coli Non-MDR, n = 24) was 2 µg/mL (≈ 3.66 µM), the MIC50 [2, 11] was 0.25 µg/mL (≈ 0.457 µM) and the MIC90 [2, 11] was 32 µg/mL (≈ 58.5 µM). For the same compound, the MIC90 ([3]; Pseudomonas aeruginosa, US isolates 2010–2012, P. aeruginosa Non-MDR, n = 41) was 32 µg/mL (≈ 58.5 µM), the MIC90 ([3]; Pseudomonas aeruginosa, US isolates 2010–2012, P. aeruginosa XDR, n = 37) was greater than 32 µg/mL and the MIC50 [3, 12] was 4 µg/mL (≈ 7.32 µM). The MIC90 [3, 12] was greater than 32 µg/mL, the MIC90 ([4]; Acinetobacter baumannii) was greater than 32 µg/mL and the MIC90 ([4]; US isolates 2010–2012, A. baumannii MDR, n = 19) was greater than 32 µg/mL. For the same compound, the MIC90 ([4]; US isolates 2010–2012, A. baumannii XDR, n = 31) was greater than 32 µg/mL, the MIC50 [4, 13] was greater than 32 µg/mL and the MIC90 [4, 13] was greater than 32 µg/mL. The MIC90 ([5]; Klebsiella pneumoniae, US isolates 2010–2012, K. pneumoniae Non-MDR, n = 24) was 1 µg/mL (≈ 1.83 µM), the MIC90 ([5]; Klebsiella pneumoniae, US isolates 2010–2012, K. pneumoniae XDR, n = 55) was greater than 32 µg/mL and the MIC50 [5, 14] was 1 µg/mL (≈ 1.83 µM). The MIC90 [5, 14] was greater than 32 µg/mL and the “BMD MIC” value (E. coli [6]) was greater than 16 µg/mL.
In the case of CC(C)[C@@H]1NC(=O)CNC(=O)[C@H](CC(N)=O)NC(=O)[C@H](CCCNC(=N)N)NC(=O)[C@H](Cc2ccc(O)cc2)NC(=O)[C@H](C(C)C)NC(=O)[C@@H]2CSSC[C@H](NC(=O)[C@H](C(C)C)NC(=O)[C@H](CCCNC(=N)N)NC1=O)C(=O)N[C@@H](Cc1ccc(O)cc1)C(=O)N[C@@H](CCCNC(=N)N)C(=O)N[C@@H](CCCNC(=N)N)C(=O)N[C@H](C(=O)N[C@@H](CC(N)=O)C(=O)O)CSSC[C@H](NC(=O)[C@H](Cc1ccccc1)NC(=O)CN)C(=O)N[C@@H](Cc1c[nH]c3ccccc13)C(=O)N[C@@H](Cc1ccc(O)cc1)C(=O)N[C@@H](C(C)C)C(=O)N2 [Arenicin-3] (HELM PEPTIDE1{G.F.C.W.Y.V.C.V.Y.R.N.G.V.R.V.C.Y.R.R.C.N}$PEPTIDE1,PEPTIDE1,3:R3-20:R3|PEPTIDE1,PEPTIDE1,7:R3-16:R3$$$V2.0), the “MIC, MHB” value (E. coli ATCC 25922) is reported as 1 µg/mL (≈ 0.383 µM), the “CC50 HepG2” value [7] is reported as greater than 300 µg/mL and the “CC50 HepG2, Mean” value [7] is reported as greater than 300 µg/mL. For the same compound, the “CC50 HepG2” value ([7]; human, HepG2 cells, 24 h) was greater than 300 µg/mL, the “CC50 HK2, Mean” value [8] was 170 µg/mL (≈ 65.1 µM) and the “CC50 HEK293, Mean” value [9] was 271 µg/mL (≈ 104 µM). The CC50 at 24 h (in vitro; HEK-293 cells) was 271 µg/mL (≈ 104 µM), the CC50 at 24 h (in vitro; HK-2 cells) was 170 µg/mL (≈ 65.1 µM) and the “Heamolysis HC10, Mean” value [10] was 204 µg/mL. For the same compound, the “BMD MIC” value (P. aeruginosa) was 1 µg/mL, the “BMD MIC” value (L. monocytogenes) was 8 µg/mL and the “BMD MIC” value (A. baumannii) was 1 µg/mL. The “BMD MIC” value (S. enterica Typhi; Typhi) was 2 µg/mL, the “BMD MIC” value (C. albicans) was greater than 32 µg/mL and the “BMD MIC” value (C. albicans; 24 h) was greater than 64 µg/mL. The “BMD MIC” value (C. neoformans) was 1 µg/mL, the “BMD MIC” value (B. subtilis) was 8 µg/mL and the “BMD MIC” value (K. pneumoniae) was 1 µg/mL.
CN[C@H](CC(C)C)C(=O)N[C@H]1C(=O)N[C@@H](CC(N)=O)C(=O)N[C@H]2C(=O)N[C@H]3C(=O)N[C@H](C(=O)N[C@H](C(=O)O)c4cc(O)cc(O)c4-c4cc3ccc4O)[C@H](O)c3ccc(c(Cl)c3)Oc3cc2cc(c3O[C@@H]2O[C@H](CO)[C@@H](O)[C@H](O)[C@H]2O[C@H]2C[C@](C)(N)[C@H](O)[C@H](C)O2)Oc2ccc(cc2Cl)[C@H]1O [Vancomycin, reference compound] showed an MIC (L. monocytogenes; Listeria monocytogenes, ATCC19112, read-out: BMD MIC) of 4 µg/mL (≈ 2.76 µM), an MIC (S. enterica Typhi) greater than 64 µg/mL and an MIC (S. aureus; ATCC25923|MSSA, read-out: BMD MIC, S. aureus ATCC 25923 MSSA, CAMHB) of 2 µg/mL (≈ 1.38 µM). It also gave an MIC (S. aureus; ATCC25923|MSSA, read-out: BMD MIC, S. aureus ATCC 25923 MSSA, MHB) of 1 µg/mL (≈ 0.69 µM), an MIC (S. aureus; ATCC43300|MRSA, read-out: BMD MIC, S. aureus ATCC 43300 MRSA, MHB) of 1 µg/mL (≈ 0.69 µM) and an MIC (B. subtilis; ATCC6051 / NRS744, read-out: BMD MIC) of 0.25 µg/mL (≈ 0.173 µM). The MIC (B. subtilis; ATCC6633 / NRS231, read-out: BMD MIC) was 0.25 µg/mL (≈ 0.173 µM).
